Test results: patent US20160220677A1, “STABLE AQUEOUS COMPOSITIONS OF PROSTGLANDIN AGONIST PRODRUGS AND METHODS FOR USE THEREOF” (Allergan, Inc., priority 2009, published 2016)

Assay: Aqueous stability of formulations, % recovery by HPLC
Assay type: physicochemical
Conditions: 30° C.; 45 days; each formulation (Formulations 1-4)
Description: The aqueous stability of invention compositions was evaluated using Compounds 2 and 3.
The formulations were analyzed by HPLC with the following measurement parameters:
Column: BioWidePore C18 (SUPELCO), 4.6 mm×25 cm, 5 μm Mobile Phase A: 0.1% (V/V) trifluoroacetic acid (TFA) in di-water, 0.8 micron filtered Mobile Phase B: 100% acetonitrile, 0.8 micron filtered Column temp: Ambient Injection volume: 30 μL
Flow: 1.0 mL/min Run time: 25 minutes Sample diluent: 50% acetonitrile in di-water
Using the above HPLC parameters, the following stability data was generated: […]

For `CCCCCC(O)c1ccc(N2C(=O)CC[C@@H]2CCCc2ccc(C(=O)OCCO)s2)cc1` (stereo partly shown) [Compound 2], the “stability in each formulation” value was “stable”.
